Test results taken from ChEMBL document CHEMBL3994622, “Design and synthesis of new RAF kinase-inhibiting antiproliferative quinoline derivatives. Part 2: Diarylurea derivatives” (Eur J Med Chem, 2017).

Columns and labels:
Type in all cases: functional
SK-OV-3 [1] = assay: Growth inhibition of human SKOV3 cells assessed as cell growth at 0.1 uM incubated for 48 hrs by sulforhodamine B assay relative to control; conditions: SK-OV-3, 48 h, read-out: Activity
RXF 393 = assay: Growth inhibition of human RXF393 cells assessed as cell growth at 10 uM incubated for 48 hrs by sulforhodamine B assay relative to control; conditions: RXF 393, 48 h, read-out: Activity
SF-295 = assay: Growth inhibition of human SF295 cells assessed as cell growth at 0.01 uM incubated for 48 hrs by sulforhodamine B assay relative to control; conditions: SF-295, 48 h, read-out: Activity
RPMI-8226 [2] = assay: Growth inhibition of human RPMI8226 cells assessed as cell growth at 10 uM incubated for 48 hrs by sulforhodamine B assay relative to control; conditions: RPMI-8226, 48 h, read-out: Activity
UO-31 [3] = assay: Growth inhibition of human UO31 cells assessed as cell growth at 10 uM incubated for 48 hrs by sulforhodamine B assay relative to control; conditions: UO-31, 48 h, read-out: Activity
EKVX = assay: Growth inhibition of human EKVX cells assessed as cell growth at 0.01 uM incubated for 48 hrs by sulforhodamine B assay relative to control; conditions: read-out: Activity
SW-620 [4] = assay: Growth inhibition of human SW620 cells assessed as cell growth at 0.01 uM incubated for 48 hrs by sulforhodamine B assay relative to control; conditions: SW-620, 48 h, read-out: Activity
UO-31 [5] = assay: Growth inhibition of human UO31 cells assessed as cell growth at 100 uM incubated for 48 hrs by sulforhodamine B assay relative to control; conditions: UO-31, 48 h, read-out: Activity
Hs-578T = assay: Growth inhibition of human Hs 578T cells assessed as cell growth at 100 uM incubated for 48 hrs by sulforhodamine B assay relative to control; conditions: read-out: Activity
SK-MEL-2 = assay: Growth inhibition of human SK-MEL-2 cells assessed as cell growth at 0.1 uM incubated for 48 hrs by sulforhodamine B assay relative to control; conditions: SK-MEL-2, 48 h, read-out: Activity
MCF7 = assay: Growth inhibition of human MCF7 cells assessed as cell growth at 1 uM incubated for 48 hrs by sulforhodamine B assay relative to control; conditions: MCF7, 48 h, read-out: Activity
HL-60(TB) = assay: Growth inhibition of human HL-60(TB) cells assessed as cell growth at 100 uM incubated for 48 hrs by sulforhodamine B assay relative to control; conditions: HL-60, 48 h, read-out: Activity
NCI-H522 [6] = assay: Growth inhibition of human NCI-H522 cells assessed as cell growth at 1 uM incubated for 48 hrs by sulforhodamine B assay relative to control; conditions: NCI-H522, 48 h, read-out: Activity
Malme-3M [7] = assay: Growth inhibition of human MALME-3M cells assessed as cell growth at 100 uM incubated for 48 hrs by sulforhodamine B assay relative to control; conditions: read-out: Activity
COLO 205 = assay: Growth inhibition of human COLO205 cells assessed as cell growth at 0.01 uM incubated for 48 hrs by sulforhodamine B assay relative to control; conditions: COLO 205, 48 h, read-out: Activity
NCI-H522 [8] = assay: Growth inhibition of human NCI-H522 cells assessed as cell growth at 0.01 uM incubated for 48 hrs by sulforhodamine B assay relative to control; conditions: NCI-H522, 48 h, read-out: Activity
RPMI-8226 [9] = assay: Growth inhibition of human RPMI8226 cells assessed as cell growth at 0.01 uM incubated for 48 hrs by sulforhodamine B assay relative to control; conditions: RPMI-8226, 48 h, read-out: Activity
Malme-3M [10] = assay: Growth inhibition of human MALME-3M cells assessed as cell growth at 10 uM incubated for 48 hrs by sulforhodamine B assay relative to control; conditions: read-out: Activity
NCI-H322M = assay: Growth inhibition of human NCI-H322M cells assessed as cell growth at 100 uM incubated for 48 hrs by sulforhodamine B assay relative to control; conditions: read-out: Activity
T47D = assay: Growth inhibition of human T47D cells assessed as cell growth at 100 uM incubated for 48 hrs by sulforhodamine B assay relative to control; conditions: read-out: Activity
SR = assay: Growth inhibition of human SR cells assessed as cell growth at 0.01 uM incubated for 48 hrs by sulforhodamine B assay relative to control; conditions: read-out: Activity
MOLT-4 [11] = assay: Growth inhibition of human MOLT4 cells assessed as cell growth at 100 uM incubated for 48 hrs by sulforhodamine B assay relative to control; conditions: MOLT-4, 48 h, read-out: Activity
RPMI-8226 [12] = assay: Growth inhibition of human RPMI8226 cells assessed as cell growth at 100 uM incubated for 48 hrs by sulforhodamine B assay relative to control; conditions: RPMI-8226, 48 h, read-out: Activity
SK-OV-3 [13] = assay: Growth inhibition of human SKOV3 cells assessed as cell growth at 100 uM incubated for 48 hrs by sulforhodamine B assay relative to control; conditions: SK-OV-3, 48 h, read-out: Activity
KM12 = assay: Growth inhibition of human KM12 cells assessed as cell growth at 100 uM incubated for 48 hrs by sulforhodamine B assay relative to control; conditions: KM12, 48 h, read-out: Activity
NCI-H226 = assay: Growth inhibition of human NCI-H226 cells assessed as cell growth at 0.003 uM incubated for 48 hrs by sulforhodamine B assay relative to control; conditions: NCI-H226, 48 h, read-out: Activity
UACC-257 [14] = assay: Growth inhibition of human UACC257 cells assessed as cell growth at 0.03 uM incubated for 48 hrs by sulforhodamine B assay relative to control; conditions: UACC-257, 48 h, read-out: Activity
MOLT-4 [15] = assay: Growth inhibition of human MOLT4 cells assessed as cell growth at 3 uM incubated for 48 hrs by sulforhodamine B assay relative to control; conditions: MOLT-4, 48 h, read-out: Activity
SK-MEL-5 = assay: Growth inhibition of human SK-MEL-5 cells assessed as cell growth at 0.03 uM incubated for 48 hrs by sulforhodamine B assay relative to control; conditions: SK-MEL-5, 48 h, read-out: Activity
UACC-257 [16] = assay: Growth inhibition of human UACC257 cells assessed as cell growth at 0.3 uM incubated for 48 hrs by sulforhodamine B assay relative to control; conditions: UACC-257, 48 h, read-out: Activity
HOP-62 = assay: Growth inhibition of human HOP62 cells assessed as cell growth at 0.3 uM incubated for 48 hrs by sulforhodamine B assay relative to control; conditions: HOP-62, 48 h, read-out: Activity
SW-620 [17] = assay: Growth inhibition of human SW620 cells assessed as cell growth at 3 uM incubated for 48 hrs by sulforhodamine B assay relative to control; conditions: SW-620, 48 h, read-out: Activity
UACC-62 = assay: Growth inhibition of human UACC62 cells assessed as cell growth at 3 uM incubated for 48 hrs by sulforhodamine B assay relative to control; conditions: UACC-62, 48 h, read-out: Activity
TK-10 = assay: Growth inhibition of human TK10 cells assessed as cell growth at 0.003 uM incubated for 48 hrs by sulforhodamine B assay relative to control; conditions: TK-10, 48 h, read-out: Activity
RPMI-8226 [18] = assay: Growth inhibition of human RPMI8226 cells assessed as cell growth at 0.3 uM incubated for 48 hrs by sulforhodamine B assay relative to control; conditions: RPMI-8226, 48 h, read-out: Activity

`COc1cc2cc(Oc3ccc(NC(=O)Nc4cc(C(F)(F)F)cc(C(F)(F)F)c4)cc3)c(C)nc2cc1OC` gave a growth at 0.1 µM (SK-OV-3 [1]) of 104%, a growth at 10 µM (RXF 393) of -44% and a growth at 0.01 µM (SF-295) of 88%. It also gave a growth at 10 µM (RPMI-8226 [2]) of -8%, a growth at 10 µM (UO-31 [3]) of -70% and a growth at 0.01 µM (EKVX) of 89%. The growth at 0.01 µM (SW-620 [4]) was 100%, the growth at 100 µM (UO-31 [5]) was -89% and the growth at 100 µM (Hs-578T) was -9%. For the same compound, the growth at 0.1 µM (SK-MEL-2) was 94%, the growth at 1 µM (MCF7) was 35% and the growth at 100 µM (HL-60(TB)) was -56%. It also gave a growth at 1 µM (NCI-H522 [6]) of 63%, a growth at 100 µM (Malme-3M [7]) of -74% and a growth at 0.01 µM (COLO 205) of 93%. It also gave a growth at 0.01 µM (NCI-H522 [8]) of 92%, a growth at 0.01 µM (RPMI-8226 [9]) of 98% and a growth at 10 µM (Malme-3M [10]) of -46%. The growth at 100 µM (NCI-H322M) was -91%, the growth at 100 µM (T47D) was -82% and the growth at 0.01 µM (SR) was 92%. It also gave a growth at 100 µM (MOLT-4 [11]) of -42%, a growth at 100 µM (RPMI-8226 [12]) of -34% and a growth at 100 µM (SK-OV-3 [13]) of -89%. It also gave a growth at 100 µM (KM12) of -74%.
`Cc1nc2cc(O)c(O)cc2cc1Oc1ccc(NC(=O)Nc2ccc(Cl)c(Cl)c2)cc1` was tested, and the growth at 0.003 µM (NCI-H226) was 101%, the growth at 0.03 µM (UACC-257 [14]) was 86% and the growth at 3 µM (MOLT-4 [15]) was 87%. For the same compound, the growth at 0.03 µM (SK-MEL-5) was 101%, the growth at 0.3 µM (UACC-257 [16]) was 92% and the growth at 0.3 µM (HOP-62) was 108%. The growth at 3 µM (SW-620 [17]) was 57%, the growth at 3 µM (UACC-62) was 91% and the growth at 0.003 µM (TK-10) was 98%. The growth at 0.3 µM (RPMI-8226 [18]) was 97%.
With `COc1cc2cc(Oc3ccc(NC(=O)Nc4ccc(Cl)c(Cl)c4)cc3)c(C)nc2cc1OC` the growth at 0.1 µM (SK-OV-3 [1]) was 107%, the growth at 10 µM (RXF 393) was 19% and the growth at 0.01 µM (SF-295) was 88%. It also gave a growth at 10 µM (RPMI-8226 [2]) of -22%, a growth at 10 µM (UO-31 [3]) of 6% and a growth at 0.01 µM (EKVX) of 94%. The growth at 0.01 µM (SW-620 [4]) was 101%, the growth at 100 µM (UO-31 [5]) was -57% and the growth at 100 µM (Hs-578T) was -45%. It also gave a growth at 0.1 µM (SK-MEL-2) of 116%, a growth at 1 µM (MCF7) of 86% and a growth at 100 µM (HL-60(TB)) of -41%. For the same compound, the growth at 1 µM (NCI-H522 [6]) was 68%, the growth at 100 µM (Malme-3M [7]) was -99% and the growth at 0.01 µM (COLO 205) was 106%. For the same compound, the growth at 0.01 µM (NCI-H522 [8]) was 99%, the growth at 0.01 µM (RPMI-8226 [9]) was 100% and the growth at 10 µM (Malme-3M [10]) was -14%. For the same compound, the growth at 100 µM (NCI-H322M) was -13%, the growth at 100 µM (T47D) was -54% and the growth at 0.01 µM (SR) was 107%. For the same compound, the growth at 100 µM (MOLT-4 [11]) was -12%, the growth at 100 µM (RPMI-8226 [12]) was -47% and the growth at 100 µM (SK-OV-3 [13]) was -57%. The growth at 100 µM (KM12) was -58%.
Compound `COc1cc2cc(Oc3ccc(NC(=O)Nc4ccc(Cl)c(C(F)(F)F)c4)cc3)c(C)nc2cc1OC` has a growth at 0.003 µM (NCI-H226) of 96%, a growth at 0.03 µM (UACC-257 [14]) of 86% and a growth at 3 µM (MOLT-4 [15]) of 10%. For the same compound, the growth at 0.03 µM (SK-MEL-5) was 92%, the growth at 0.3 µM (UACC-257 [16]) was 83% and the growth at 0.3 µM (HOP-62) was 86%. For the same compound, the growth at 3 µM (SW-620 [17]) was 15%, the growth at 3 µM (UACC-62) was 28% and the growth at 0.003 µM (TK-10) was 94%. It also gave a growth at 0.3 µM (RPMI-8226 [18]) of 85%.
